Values quoted from earlier work in patent US20070197544A1, “ILOPROST IN COMBINATION THERAPIES FOR THE TREATMENT OF PULMONARY ARTERIAL HYPERTENSION” (CoTherix, Inc., priority 2003, published 2007).
Counter-ions that a name gives are not always drawn. Like-named read-outs stand apart in the source and are kept apart here.

Assays:
[1] = oral, at 3 and 6 months
[2] = 20 mg, 12-week period
[3] = at least one year of treatment
[4] = long-term use of aerosolized iloprost, severe pulmonary hypertension
[5] = versus placebo, severe PAH
[6] = not given; remark: listed apart in the source
[7] = administered by aerosolization, patients with pulmonary hypertension
[8] = continuous infusion, severe pulmonary hypertension
[9] = open pilot study

CC#CCC(C)[C@H](O)/C=C/[C@@H]1[C@H]2c3cccc(CCCC(=O)O)c3O[C@H]2C[C@H]1O (mixture of isomers) [Beraprost]
benefit in PAH [1]: shown a benefit

CN1CC(=O)N2[C@H](c3ccc4c(c3)OCO4)c3[nH]c4ccccc4c3C[C@@H]2C1=O [Cialis, Tadalafil]
most commonly reported (greater than or equal to 5 percent) treatment-emergent adverse effects [2]: headache, back pain, and upset stomach | patients who discontinued the study because of adverse events [2]: 5% | most commonly reported treatment-emergent adverse effects ([3]; 10 mg or 20 mg): headache and upset stomach | discontinuation rate for any individual adverse event [3]: less than 1% | patients who discontinued the study due to side effects [3]: Five

CC#CCC(C)[C@H](O)/C=C/[C@@H]1[C@H]2C/C(=C/CCCC(=O)O)C[C@H]2C[C@H]1O (stereo partly shown) [Iloprost]
clinical improvement [4]: substantial clinical improvement | exercise capacity [5]: improved exercise capacity

CCCc1nc(C)c2c(=O)[nH]c(-c3cc(S(=O)(=O)N4CCN(CC)CC4)ccc3OCC)nn12 [Levitra, vardenafil HCl]
most commonly reported side effects (in vivo): headache, flushing, and stuffy or runny nose | erectile function (phase III clinical studies): Helped men get and keep an erection sufficient for satisfactory sexual performance

COc1ccccc1Oc1c(NS(=O)(=O)c2ccc(C(C)(C)C)cc2)nc(-c2ncccn2)nc1OCCO [bosentan]
liver toxicity ([6]; higher dose): liver toxicity occurred | six minute walk test ([6]; whole group, improvement greater at higher doses): improved

CCCCC[C@H](O)/C=C/[C@@H]1[C@H]2C/C(=C/CCCC(=O)O)O[C@H]2C[C@H]1O [prostacyclin]
duration of effects (pulmonary vasodilatation) [7]: 15 min | mortality [8]: reduce mortality

Cc1cc2c(cc1CC(=O)c1sccc1S(=O)(=O)Nc1onc(C)c1Cl)OCO2 [sitaxsentan]
decrease in pulmonary vascular resistance [9]: 30% | six minute walk test [9]: improvement
